This note sets out measurements from paper PMC9570478, “Purification, Biochemical and Kinetic Characterization of a Novel Alkaline sn-1,3-Regioselective Triacylglycerol Lipase from Penicillium crustosum Thom Strain P22 Isolated from Moroccan Olive Mill Wastewater” (International Journal of Molecular Sciences, 2022).

One experiment deals with T1, Lipolase (Thermomyces lanuginosus, UniProt O59952).
T1 construct: gene LIP; commercial enzyme preparation (Novozymes)
T1 sequence (O59952 23-291): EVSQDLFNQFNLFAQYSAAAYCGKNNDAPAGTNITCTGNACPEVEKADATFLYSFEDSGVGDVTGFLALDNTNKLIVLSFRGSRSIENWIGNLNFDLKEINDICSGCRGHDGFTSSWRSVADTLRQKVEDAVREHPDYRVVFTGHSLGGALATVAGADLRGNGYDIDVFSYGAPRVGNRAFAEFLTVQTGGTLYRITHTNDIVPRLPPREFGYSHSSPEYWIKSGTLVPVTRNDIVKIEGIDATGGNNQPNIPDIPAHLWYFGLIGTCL
As to the kind of experiment: pH-Stat titration. It is filed as biochemical. To be noted: commercial preparation; TC8 emulsion.

The next experiment has as its target T2, Palatase 20000 L (Rhizomucor miehei, UniProt P19515).
T2 construct: commercial enzyme preparation (Novozymes)
T2 sequence (P19515 95-363): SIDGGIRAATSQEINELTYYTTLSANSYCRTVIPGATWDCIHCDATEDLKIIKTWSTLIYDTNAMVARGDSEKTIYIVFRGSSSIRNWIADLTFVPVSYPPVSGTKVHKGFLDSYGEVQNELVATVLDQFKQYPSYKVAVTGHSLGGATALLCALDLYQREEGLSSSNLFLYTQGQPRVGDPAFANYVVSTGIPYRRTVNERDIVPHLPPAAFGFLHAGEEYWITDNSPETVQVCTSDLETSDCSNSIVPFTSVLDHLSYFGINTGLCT
As to the kind of experiment: pH-Stat titration. It is filed as biochemical. The following applies: commercial preparation; TC8 emulsion.

For the compound `CCCCCCCC(=O)OCC(COC(=O)CCCCCCC)OC(=O)CCCCCCC` [TC8], the pH-Stat titration entry at Lipolase and at Palatase 20000 L was “almost the same substrate specificity profile as PCrL under the same experimental conditions” in each case.
